Results: PubChem BioAssay (NCI)
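Interpolation was linear, between the two tested concentrations surrounding the appropriate level; five concentrations were tested over 48 hours in 96-well plates. TGI is the concentration that stops growth completely.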

Experiments:
Assay in all cases: inhibition of tumour cell growth, NCI panel, 48 h
OVCAR-8 ovarian = system: OVCAR-8 ovarian
HT29 colon = system: HT29 colon
MDA-MB-231 breast = system: MDA-MB-231 breast
OVCAR-3 ovarian = system: OVCAR-3 ovarian
SN12C renal = system: SN12C renal
COLO 205 colon = system: COLO 205 colon
HOP-92 NSCLC = system: HOP-92 NSCLC
SK-MEL-5 melanoma = system: SK-MEL-5 melanoma
HOP-62 NSCLC = system: HOP-62 NSCLC
SNB-19 CNS = system: SNB-19 CNS
HCT-15 colon = system: HCT-15 colon
M14 melanoma = system: M14 melanoma
NCI/ADR-RES ovarian = system: NCI/ADR-RES ovarian
HCT-116 colon = system: HCT-116 colon
SK-MEL-28 melanoma = system: SK-MEL-28 melanoma
SF-295 CNS = system: SF-295 CNS
RPMI-8226 leukemia = system: RPMI-8226 leukemia
SNB-75 CNS = system: SNB-75 CNS
MOLT-4 leukemia = system: MOLT-4 leukemia
SK-OV-3 ovarian = system: SK-OV-3 ovarian
PC-3 prostate = system: PC-3 prostate
EKVX NSCLC = system: EKVX NSCLC
BT-549 breast = system: BT-549 breast
ACHN renal = system: ACHN renal
OVCAR-5 ovarian = system: OVCAR-5 ovarian
MALME-3M melanoma = system: MALME-3M melanoma
UACC-257 melanoma = system: UACC-257 melanoma
SK-MEL-2 melanoma = system: SK-MEL-2 melanoma
K-562 leukemia = system: K-562 leukemia
LOX IMVI melanoma = system: LOX IMVI melanoma
SR leukemia = system: SR leukemia
SF-539 CNS = system: SF-539 CNS
HL-60(TB) leukemia = system: HL-60(TB) leukemia
MDA-N = system: MDA-N
A498 renal = system: A498 renal
HS 578T breast = system: HS 578T breast
SW-620 colon = system: SW-620 colon
UACC-62 melanoma = system: UACC-62 melanoma
MDA-MB-435 = system: MDA-MB-435
NCI-H522 lung = system: NCI-H522 lung
OVCAR-4 ovarian = system: OVCAR-4 ovarian
A549 NSCLC = system: A549 NSCLC
U251 CNS = system: U251 CNS
CAKI-1 renal = system: CAKI-1 renal
UO-31 renal = system: UO-31 renal
SF-268 CNS = system: SF-268 CNS
MCF7 breast = system: MCF7 breast
DU-145 prostate = system: DU-145 prostate
NCI-H460 lung = system: NCI-H460 lung
T-47D breast = system: T-47D breast
NCI-H23 lung = system: NCI-H23 lung
KM12 colon = system: KM12 colon
TK-10 renal = system: TK-10 renal
RXF 393 renal = system: RXF 393 renal
IGROV1 ovarian = system: IGROV1 ovarian
NCI-H226 lung = system: NCI-H226 lung
CCRF-CEM leukemia = system: CCRF-CEM leukemia
786-0 renal = system: 786-0 renal

Compound: COCCOc1nc(-c2ccccc2)nc2ccccc12
- TGI (OVCAR-8 ovarian): > 100 µM
- TGI (HT29 colon): > 100 µM
- TGI (MDA-MB-231 breast): > 100 µM
- TGI (OVCAR-3 ovarian): > 100 µM
- TGI (SN12C renal): > 100 µM
- TGI (COLO 205 colon): > 100 µM
- TGI (HOP-92 NSCLC): 87.6 µM
- TGI (SK-MEL-5 melanoma): 88.3 µM
- TGI (HOP-62 NSCLC): > 100 µM
- TGI (SNB-19 CNS): > 100 µM
- TGI (HCT-15 colon): 43.3 µM
- TGI (M14 melanoma): 90 µM
- TGI (NCI/ADR-RES ovarian): > 100 µM
- TGI (HCT-116 colon): > 100 µM
- TGI (SK-MEL-28 melanoma): > 100 µM
- TGI (SF-295 CNS): > 100 µM
- TGI (RPMI-8226 leukemia): 45.5 µM
- TGI (SNB-75 CNS): > 100 µM
- TGI (MOLT-4 leukemia): 70.4 µM
- TGI (SK-OV-3 ovarian): > 100 µM
- TGI (PC-3 prostate): > 100 µM
- TGI (EKVX NSCLC): > 100 µM
- TGI (BT-549 breast): > 100 µM
- TGI (ACHN renal): > 100 µM
- TGI (OVCAR-5 ovarian): > 100 µM
- TGI (MALME-3M melanoma): > 100 µM
- TGI (UACC-257 melanoma): > 100 µM
- TGI (SK-MEL-2 melanoma): > 100 µM
- TGI (K-562 leukemia): > 100 µM
- TGI (LOX IMVI melanoma): > 100 µM
- TGI (SR leukemia): 60.9 µM
- TGI (SF-539 CNS): > 100 µM
- TGI (HL-60(TB) leukemia): > 100 µM
- TGI (MDA-N): > 100 µM
- TGI (A498 renal): 70 µM
- TGI (HS 578T breast): 73 µM
- TGI (SW-620 colon): > 100 µM
- TGI (UACC-62 melanoma): > 100 µM
- TGI (MDA-MB-435): > 100 µM
- TGI (NCI-H522 lung): > 100 µM
- TGI (OVCAR-4 ovarian): > 100 µM
- TGI (A549 NSCLC): > 100 µM
- TGI (U251 CNS): > 100 µM
- TGI (CAKI-1 renal): > 100 µM
- TGI (UO-31 renal): > 100 µM
- TGI (SF-268 CNS): > 100 µM
- TGI (MCF7 breast): > 100 µM
- TGI (DU-145 prostate): > 100 µM
- TGI (NCI-H460 lung): 62 µM
- TGI (T-47D breast): > 100 µM
- TGI (NCI-H23 lung): > 100 µM
- TGI (KM12 colon): > 100 µM
- TGI (TK-10 renal): > 100 µM
- TGI (RXF 393 renal): 30.6 µM
- TGI (IGROV1 ovarian): > 100 µM

Compound: NC(=O)CC(N)C(N)=O (stereo not drawn)
- TGI (OVCAR-8 ovarian): > 100 µM
- TGI (MDA-MB-231 breast): > 100 µM
- TGI (OVCAR-3 ovarian): > 100 µM
- TGI (SN12C renal): > 100 µM
- TGI (COLO 205 colon): > 100 µM
- TGI (HOP-92 NSCLC): > 100 µM
- TGI (NCI-H226 lung): > 100 µM
- TGI (SK-MEL-5 melanoma): > 100 µM
- TGI (HOP-62 NSCLC): > 100 µM
- TGI (SNB-19 CNS): > 100 µM
- TGI (HCT-15 colon): > 100 µM
- TGI (M14 melanoma): > 100 µM
- TGI (NCI/ADR-RES ovarian): > 100 µM
- TGI (HCT-116 colon): > 100 µM
- TGI (SK-MEL-28 melanoma): > 100 µM
- TGI (SF-295 CNS): > 100 µM
- TGI (RPMI-8226 leukemia): > 100 µM
- TGI (SNB-75 CNS): > 100 µM
- TGI (MOLT-4 leukemia): > 100 µM
- TGI (CCRF-CEM leukemia): > 100 µM
- TGI (SK-OV-3 ovarian): > 100 µM
- TGI (PC-3 prostate): > 100 µM
- TGI (BT-549 breast): > 100 µM
- TGI (ACHN renal): > 100 µM
- TGI (MALME-3M melanoma): > 100 µM
- TGI (UACC-257 melanoma): > 100 µM
- TGI (SK-MEL-2 melanoma): > 100 µM
- TGI (K-562 leukemia): > 100 µM
- TGI (LOX IMVI melanoma): > 100 µM
- TGI (SR leukemia): > 100 µM
- TGI (SF-539 CNS): > 100 µM
- TGI (HL-60(TB) leukemia): > 100 µM
- TGI (MDA-N): > 100 µM
- TGI (A498 renal): > 100 µM
- TGI (HS 578T breast): > 100 µM
- TGI (SW-620 colon): > 100 µM
- TGI (UACC-62 melanoma): > 100 µM
- TGI (MDA-MB-435): > 100 µM
- TGI (786-0 renal): > 100 µM
- TGI (NCI-H522 lung): > 100 µM
- TGI (OVCAR-4 ovarian): > 100 µM
- TGI (A549 NSCLC): > 100 µM
- TGI (U251 CNS): > 100 µM
- TGI (CAKI-1 renal): > 100 µM
- TGI (MCF7 breast): > 100 µM
- TGI (DU-145 prostate): > 100 µM
- TGI (NCI-H460 lung): > 100 µM
- TGI (T-47D breast): > 100 µM
- TGI (NCI-H23 lung): > 100 µM
- TGI (KM12 colon): > 100 µM
- TGI (TK-10 renal): > 100 µM
- TGI (RXF 393 renal): > 100 µM
- TGI (IGROV1 ovarian): > 100 µM
